Results taken from EP2927230A1, “PENTAMETHINIUM SALTS WITH AN EXPANDED QUINOXALINE UNIT AND ITS USE IN ANTICANCER THERAPY” (University of Chemistry and Technology - Prague, priority 2014, dated 2015).

Columns and labels:
[1] = tested on: MiaPaCa-2 (human pancreatic carcinoma); assay: Cytotoxicity (MTT) assay; format: cell-based; conditions: MiaPaCa-2 cell line
Procedure: (§1) Cells were seeded into 96-well microtitre plates to the expected target cell density (2,500-30,000 cells-well^-1, according to the particular cell line). The inoculant were pre-incubated to stabilize for 24 h (at 37°C and 5 % CO^2). Fourfold dilutions (0-200 µmol·L^-1; in triplicates) of the tested compound 1 were added to the microtitre plate wells at time zero. The cells were treated with compound 1 for 72 h under standard cultivation conditions. Then, the cells were assayed using MTT for 4 h. Produced formazan, arisen by mitochondrial reduction of MTT, was dissolved in 10 % aqueous solution of sodium dodecyl sulphate (pH 5.5; 100 µL·well^-1, hole diameter is 6.54 mm) followed by overnight incubation. […] The absorption of the produced formazan was measured at 540 nm using Labsystem iEMS Reader MF. The tumor cell inhibitory concentration (IC) of compound 1 was calculated using the following equation: IC = (ODdrug / mean ODcontrol) · 100 %. The IC50 (Table 1) value (drug concentration being lethal for 50 % of the cells) was calculated from appropriate dose-response curves. (Noskova, V.; Dz ? ubak, P.; Kuzmina, G.; Ludkova, A.; Stehlik, D.; Trojanec, R.; Jano ? akova, A.; Kor ? inkova, G.; Mihal, V.; Hajduch, M. Neoplasma 2002, 49, 418-425. 38. Hajduch, M.; Mihal, V.; Minar ? ik, J.; Faber, E.; ? afarova, M.; Weigl, E.; Antalek, P. Cytotechnology 1996, 19, 243-245)

[2] = tested on: 4T1(mouse mammary gland carcinoma); assay: Cytotoxicity (MTT) assay; format: cell-based; conditions: 4T1 cell line
Procedure: as §1

[3] = tested on: LNCaP (human prostate carcinoma); assay: Cytotoxicity (MTT) assay; format: cell-based; conditions: LNCaP cell line
Procedure: as §1

[4] = tested on: MCF-7 (breast cancer cells); assay: Cytotoxicity (MTT) assay; format: cell-based; conditions: MCF-7 cell line
Procedure: as §1

[5] = tested on: MDA-MB-231 (human breast carcinoma); assay: Cytotoxicity (MTT) assay; format: cell-based; conditions: MDA-MB-231 cell line
Procedure: as §1

[6] = tested on: U-2 OS (human osteosarcoma); assay: Cytotoxicity (MTT) assay; format: cell-based; conditions: U-2 OS cell line
Procedure: as §1

[7] = tested on: PE/CA-PJ34 (human basaloid squamous cell carcinoma); assay: Cytotoxicity (MTT) assay; format: cell-based; conditions: PE/CA-PJ34 cell line
Procedure: as §1

[8] = tested on: human breast carcinoma (MDA-MB-231); assay: Effect on tumor growth in vivo (subcutaneous xenograft); set-up: species or system Nu/nu mice
Excerpt: Effect of salt 1 on tumor growth in vivo. […] The control group (◆) consisted of untreated mice with a tumor.

**Q.** `CCCN1C(=C2C=C(C=Cc3sc4ccccc4[n+]3CCC)c3nc4ccccc4nc32)Sc2ccccc21` [compound 1] was tested. Which cytotoxicity [1] did it give?
**A.** The cytotoxicity was “high cytotoxicity”.

**Q.** What about the cytotoxicity [2] of the same molecule?
**A.** Its cytotoxicity is “high cytotoxicity”.

**Q.** What about the cytotoxicity [3] of the same molecule?
**A.** The cytotoxicity was “high cytotoxicity”.

**Q.** What about the cytotoxicity [4] of the same molecule?
**A.** The cytotoxicity was “high cytotoxicity”.

**Q.** And the cytotoxicity [5]?
**A.** The cytotoxicity was “high cytotoxicity”.

**Q.** And the cytotoxicity [6]?
**A.** The cytotoxicity was “high cytotoxicity”.

**Q.** And the cytotoxicity [7]?
**A.** The cytotoxicity was “high cytotoxicity”.

**Q.** And the tumor growth ([8]; Nu/nu mice with MDA-MB-231, after application, for the duration of the experiment (more than 40 days))?
**A.** Its tumor growth is “practically stopped”.

**Q.** And the anticancer effect ([8]; Nu/nu mice with human breast carcinoma (MDA-MB-231))?
**A.** Its anticancer effect is “high anticancer effect”.

**Q.** What about the “differences in the tumor volume of control mice versus treated mice” value ([8]; intravenously, 5 mgkg-1, twice a week, * p<0.05, ** p<0.01, n=5 mice per group) of the same molecule?
**A.** Its value is “Statistically significant differences”.
